Test results from patent publication US11040052B2, “Methods and pharmaceutical compositions for modulating autophagy in a subject in need thereof” (INSERM (INSTITUT NATIONAL DE LA SANTE ET DE LA RECHERCHE …, priority 2013, dated 2021).
“Also recorded” adds a separate entry of the source.

Tests used:
[1] = test system: AcCoA levels; assay: Targeted analysis of AcCoA levels in cultured cells (HPLC-MS); type: cell-based, human; details: for AcCoA levels: cells kept in rich medium; for cytosolic AcCoA levels: cytosolic fraction; for AcCoA levels in starved cells: nutrient-depleted (starved) cells in vitro
Procedure: Cells were trypsinized, pelleted at 1000 rpm for 4 min, washed with PBS and pelleted again at 1000 rpm for 4 min. Cells were then resuspended in 5 ml of ice-cold hyposmotic buffer and keep on ice for 5 min. Cells were broken to release nuclei using a pre-chilled Dounce homogenizer (20 strokes with a tight pestle) and then were then centrifuged at 228 g.
For in vitro experiments, cell pellets were resuspended in 300 μL of water with HEPES and EDTA (pH 7.4) at 1 mM containing internal standard acetylcoenzyme A (2-C13) at 1 mg/L, vortexed and heated at 100° C. for 1 min. Samples were incubated in liquid nitrogen for 1 min and thawed at room temperature two times. They were let for 1 h at −20° C. and centrifuged at 4° C. during 15 min at 13,000 g. Supernatants were transferred in HPLC vials and injected in HPLC/MS or kept at −80° C. until injection. For in vivo experiments, frozen tissues were placed in ice-cold homogenization tubes containing ceramic beads. Five μL of ice-cold methanol/water (80/20; v/v) were added for 1 mg of tissue. Tissues were homogenized two times for 20 s at 5,500 rpm using Precellys 24 tissue homogenator (Bertin Technologies, Montigny-le-Bretonneux, France). Samples were placed 10 min on ice. Next they were centrifuged at 4° C. during 15 min at 13,000 g. Supernatants were transferred in HPLC vials and injected in HPLC-MS system or kept at −80° C. until injection.
Targeted analyses were performed on Rapid Resolution Liquid Chromatography (RRLC) 1200SL system (Agilent Technologies, Waldbronn, Germany) coupled to a Triple Quadruple QQQ 6410 mass spectrometer (Agilent Technologies). RRLC analysis was done on 150×2.1 mm, 3.5 μm Eclipse Plus SB-Aq column with a pre-column 30 mm×2.1 mm 3.5 μm Eclipse plus (Agilent Technologies) with water containing 10 mmol/L of ammonium acetate and 0.01% of acetic acid in channel A and acetonitrile in channel B in gradient mode at a flow rate of 0.3 mL·min^−1: t=0 min 2% B; t=9 min 95% B; t=11 min 95% B; re-equilibration time of 3 min. Mass spectrometer analysis was done in positive electrospray ionization mode at +4 kV on the QQQ system operating in MRM mode. MRM transitions were optimized with standard of AcCoA and AcCoA A 2-C^13 with direct infusion. Two transitions were recorded for each compound; • AcCoA 810>303 CE (collision energy) 28V; fragmentor 180V • 810>428 CE 20V • AcCoA 2-C13 812>305 CE 28V; fragmentor 180V • 812>428 CE 24V […]

[2] = test system: cellular ATP levels; assay: Cellular ATP levels; type: cell-based
[3] = test system: cytoplasts of U2OS cells stably expressing GFP-LC3; assay: Autophagic flux in cytoplasts (enucleated GFP-LC3 cells); type: cell-based, human; details: presence of BafA1, compared with nucleated control cells
Procedure: U2OS cells stably expressing GFP-LC3 were trypsinized and incubated in 3 ml of complete medium supplemented with […] cytochalasin B for 45 min at 37° C. This cell suspension was layered onto a discontinuous Ficoll density gradient (3 mL of 55%, 1 mL of 90%, and 3 mL of 100% Ficoll-Paques; GE Healthcare) in complete medium containing […] cytochalasin B. Gradients were prepared in ultracentrifuge tubes and pre-equilibrated at 37° C. in a CO2 incubator overnight. Gradients containing cell suspensions were centrifugated in a prewarmed rotor (SW41; Beck-man Coulter) at 30,000 g for 30 min at 32° C. The cytoplast-enriched fraction was collected from the interface between 55 and 90% Ficoll layers, washed in complete medium, and incubated for 4 h at 37° C. before treatments.

[4] = test system: turnover of long-lived proteins; assay: Turnover of long-lived proteins; type: cell-based, human; details: for starvation-induced turnover of long-lived proteins: starved cells
[5] = test system: EP300; assay: Acetylation of EP300 K1499 in starved cells; type: cell-based; details: nutrient-free conditions

SMILES | AcCoA levels [1] | cytosolic AcCoA levels [1] | cellular ATP levels ([2]; cells in rich medium) | autophagic flux in cytoplasts [3] | autophagy-dependent turnover of long-lived proteins ([4]; cells in rich medium) | AcCoA levels in starved cells [1] | cellular ATP levels in starved cells [2] | starvation-induced turnover of long-lived proteins [4] | starvation-induced deacetylation of the K1499 residue in EP300 [5]
N#CC(=Cc1cn(-c2ccccc2)c2ccccc12)C(=O)O [UK5099, 2-Cyano-3-(1-phenyl-1H-indol-3-yl)-2-propenoic acid] | reduced both AcCoA levels; also recorded: depletion of intracellular AcCoA | also raised the cytosolic concentration of AcCoA | without reducing ATP | stimulated autophagy in cytoplasts as efficiently as in nucleated control cells; also recorded: stimulated autophagic flux in cytoplasts as efficiently as in nucleated control cells | increased the autophagy-dependent turnover of long-lived proteins |  |  |  | 
O=C(O)CCCCC1CCSS1 (centres unmarked) [LA, lipoic acid] |  | also raised the cytosolic concentration of AcCoA |  |  |  | increased both cellular AcCoA levels; also recorded: maintain high AcCoA | induced a decrease in cellular ATP | blunted | could be avoided
CC(C)CC(=O)C(=O)O [KIC, ketoisocaproic acid] |  | also raised the cytosolic concentration of AcCoA |  |  |  | increase in AcCoA levels; also recorded: sufficient to avoid AcCoA depletion | induced a decrease in cellular ATP | inhibited the starvation-induced increase in autophagic flux and turnover of long-lived proteins | could be avoided
O=C(O)CC(O)(C(=O)O)C(O)C(=O)O (centres unmarked) [HC, hydroxycitrate] | reduced both AcCoA levels | reduced cytoplasmic AcCoA levels |  | stimulated autophagy in cytoplasts as efficiently as in nucleated control cells; also recorded: stimulated autophagic flux in cytoplasts as efficiently as in nucleated control cells |  |  |  |  | 
COC(=O)CCC(=O)C(=O)OC [DMKG, dimethyl-α-ketoglutarate] |  | also raised the cytosolic concentration of AcCoA |  |  |  | increased cellular AcCoA levels; also recorded: maintained high AcCoA | induced a decrease in cellular ATP |  | could be avoided
CC(C)C[C@H](N)C(=O)O [leucine] |  |  |  |  |  | sufficient to maintain high AcCoA levels |  |  | 
O=C(O)c1cccc(C(=O)O)c1C(=O)O [BTC, 1,2,3-benzenetricarboxylate] | reduced both AcCoA levels | induced the triad of AcCoA depletion |  | stimulated autophagy in cytoplasts as efficiently as in nucleated control cells; also recorded: stimulated autophagic flux in cytoplasts as efficiently as in nucleated control cells |  |  |  |  | 
